The subject of test [1] is mESCs. To be noted: cited from earlier work.
Test [2] has as its system cardiomyocytes derived from Id1 overexpressing h9-hESCs. The experiment in a line: Beat rate of cardiomyocytes measured optically with VF2.1 Cl. The test is classed as cell-based, human. To be noted: 100 nM, compared to vehicle. The method, then:
FIG. 3F. Schematic of the workflow for the physiological assessment of cardiomyocytes derived from Id1 overexpressing h9-hESCs using the calcium (Fluo-4) and voltage (VF2.1 Cl)(Miller et al., 2012) sensitive dyes.
Next, experiments were performed to determine whether iMP progenitors are bona fide multipotent cardiovascular progenitors and thus able to differentiate into multiple cardiac lineages including functional cardiomyocytes. To address this question, iMPs were first produced in bulk until day 6 of differentiation for mouse, or day 5 for human. At this point, iMPs could be cryopreserved or used fresh. Spontaneous differentiation potential under basal media conditions without cytokines (FIG. 3A) was assessed by RT-qPCR (FIGS. 3B, 3C) and immunostaining (FIG. 3D and FIGS. 9A, 9B) at day 15 of differentiation. […] Although iMPs are multipotent progenitors, the vast majority of the cells (˜70%) spontaneously differentiate into ACTC1^+ cardiomyocytes in hESCs (FIG. 3E). Next, we assessed whether resulting ACTC1^+ cells show characteristics of functional cardiomyocytes, which include the ability to contract, display intracellular calcium oscillations and action potentials, and respond to hormonal stimuli (Birket et al., 2015; Burridge et al., 2014).

Entries after “also recorded” stand apart in the source; their conditions may differ.

This is an account of results in US11821003B2, “Cardiogenic mesoderm formation regulators” (Sanford Burnham Prebys Medical Discovery Institute, priority 2017, dated 2023).

As to `NC(=O)c1ccc(-c2nc(-c3ccc4c(c3)OCO4)c(-c3ccccn3)[nH]2)cc1` [SB431542], the Id1 transcripts result in test [1] is “upregulate Id1 transcripts”.

As to `CC(C)NCC(O)c1ccc(O)c(O)c1` (centres unmarked) [isoproterenol], in test [2], the beat rate entry is on record as “increased beat rate; also recorded: increase in beating frequency”.
